The record followed here is patent US20060166956A1, “Use of anecortave acetate for the protection of visual acuity in patients with age related macular degeneration” (priority 2002, published 2006).

Data set [1] concerns patients with exudative AMD. The data set can be described thus: Clinical trial: clinical safety evaluation (Independent Safety Committee). In kind it is in vivo. From the text: (§1) Clinical efficacy data is being obtained from evaluations of best-corrected log MAR visual acuity and standardized fluorescein angiograms. Clinical safety data obtained from general physical examinations, laboratory evaluations of blood and urine, and complete ophthalmic examinations, including indocyanine green angiography, continue to be periodically evaluated by the Independent Safety Committee overseeing this study. Clinical data from evaluations for safety and efficacy performed at Day 1-2, Week 2, Week 6, Month 3, and Month 6 following patient randomization and treatment are reported here.
Following completion of the Month 6 visit by all patients, the accumulated safety data were evaluated by the Independent Safety Committee overseeing this study. […] The most common ocular changes reported were changes in lens opacity using the Lens Opacity Classification System (LOCS) II, and included reports of nuclear color, nuclear opalescence, cortical, and posterior subcapsular changes. Cataracts are a common intercurrent disorder in this patient population, and the changes seen were documented in all treatment groups and in contralateral (untreated) eyes. The cataractous changes reported were described as mild and typically unrelated to treatment. The second most common ocular change, a decrease in vision (defined as a decrease of ≧4 log MAR lines from the previous visit), is also a common problem in this patient population. These vision decreases occurred in all treatment groups and in the contralateral eye. Other ocular changes (occurring with a frequency greater than 5%) were ptosis, ocular pain, subconjunctival hemorrhage, ocular pruritis, ocular burning/stinging, pupil disorders, foreign body sensation, ocular hyperemia, and abnormal vision. These changes were reported in all four treatment groups, in both treated eyes and contralateral eyes, were characterized as primarily mild, were generally not attributed to treatment, and were transient in nature. The single report of an IOP increase (≧10 mmHg) from Baseline occurred in a patient treated with anecortave acetate 30 mg and was attributed to intercurrent illness. Of the ocular changes reported, those most frequently attributed to study treatment were ptosis, ocular pain, subconjunctival hemorrhage, ocular pruritis, and ocular burning/stinging. These treatment-related events were mostly mild, transient, and seen within all four treatment groups.

For data set [2], the system named is subfoveal CNV lesion secondary to AMD. Kind of data set: Clinical trial: CNV lesion surface area change by standardized fluorescein angiograms (DARC). In kind it is in vivo, patients. The following applies: for inhibition of lesion growth, comparison with placebo: Month 6. From the text:
(§2) This ongoing trial was initiated to compare the clinical efficacy of anecortave acetate versus placebo treatment for preservation (maintenance) of vision and inhibition of CNV lesion growth. Patients with a log MAR visual acuity of 0.3 (20/40 Snellen equivalent) to 1.2 (20/320 Snellen equivalent) and primary or recurrent subfoveal choroidal neovascularization (CNV) secondary to AMD with a lesion up to 30.48 mm^2 (12 disc areas) in size were enrolled. At Baseline and follow-up visits, best-corrected log MAR visual acuity was obtained on all patients using guidelines previously established for the Early Treatment Diabetic Retinopathy Study. Patient lesion eligibility for this study was determined from standardized fluorescein angiograms at the Digital Angiography Reading Center (DARC) by certified Readers (trained retina specialists) prior to enrollment and treatment. The DARC also evaluated changes from Baseline in the fluorescein angiographic characteristics of the lesions in masked fashion. Each data point represents the average of at least two independent evaluations by DARC Readers. Because all angiographic data for this study is being collected using the same fundus camera and digital camera systems and stored as uncompressed digital images, the actual lesion surface areas can be more closely approximated in mm^2 rather than requiring the disc area “best-fit” estimates previously used for film angiographic data.
The primary efficacy outcome for this ongoing study is the mean change from Baseline in best-corrected log MAR visual acuity. Secondary efficacy outcomes are: the percentage of patients with preservation or maintenance of vision (defined as loss of less than three log MAR lines [less than 15 log MAR letters] of visual acuity); the percentage of patients with clinically significant worsening of vision (defined as a loss of at least three log MAR lines [at least 15 log MAR letters] of visual acuity); the percentage of patients with severe vision loss (defined as a loss of at least six log MAR lines [at least 30 log MAR letters] of visual acuity); and changes in CNV lesion characteristics (defined as total lesion area, total CNV and total classic CNV).
All efficacy analyses were based on the intent-to-treat principle. All patients received the medication to which they were assigned, and were analyzed accordingly. Last-observation-carry-forward was used to impute missing values. Baseline comparisons were tested using analysis of variance (for continuous outcomes) and Pearson's chi square (for binary outcomes). Changes from baseline in visual acuity and lesion parameters were tested in a repeated measures analysis of variance model with appropriate contrasts for the 6-month comparisons. Comparisons of binary outcomes at Month 6 were evaluated using Pearson's chi-square tests. All analyses of ocular outcomes are based on changes in the study (i.e., treated) eye.
Total lesion areas, total CNV areas, and total classic CNV areas were measured and compared among treatment groups.

Data set [3] concerns patients with subfoveal choroidal neovascularization (CNV) secondary to AMD. The data set can be described thus: Clinical trial: best-corrected log MAR visual acuity after single posterior juxtascleral administration. Type of data set: in vivo.
Text: as §2
The 128 patients in this double-masked, dose-response study were enrolled and treated between April 1999 and May 2001 by 18 participating sites in the US and EU. Prior to treatment, patients were enrolled and equally randomized to anecortave acetate sterile suspension for injection 30 mg (N=33), 15 mg (N=33), or 3 mg (N=32) or to placebo (vehicle, N=30). Masking of the clinical sites as to treatment group is being maintained in two ways. Study medication is masked by placing the treatment kits including study medication and supplies for the posterior juxtascleral administration in sealed opaque boxes identified by patient number only. The boxes were numbered sequentially at each clinical site and patients were assigned the next available sequential number upon enrollment. The randomization was built into the sequential numbering of the treatment kits and blocked within each site to maintain equal distribution across treatment assignments. Masking as to treatment group is also being maintained at each site by having an unmasked injecting investigator perform the treatments and a masked examining investigator perform the subsequent evaluations. Upon enrollment of each patient, anecortave acetate or placebo was administered behind the eye as a 0.5 mL posterior juxtascleral injection onto the outer surface of the sclera near the macula using a specially designed cannula. The cannula is described in commonly owned U.S. Pat. No. 6,413,245B 1.
as §1, with “here. […]” for “here.”

On to `CC(=O)OCC(=O)[C@@]1(O)CC[C@H]2[C@@H]3CCC4=CC(=O)CC[C@]4(C)C3=CC[C@@]21C` [anecortave acetate, 4,9(11)-pregnadien-17α,21-diol-3,20 dione-21 acetate], for which the “reports of IOP increase (≧10 mmHg) from Baseline” value in data set [1] (30 mg) was “single report”. In addition, the “changes in blood chemistry, hematology, or urinalysis” value in data set [1] (all doses) was “No treatment-related changes”. Further, the “safety concerns identified by the Independent Safety Committee” value in data set [1] (all doses, after Month 6 visit) is recorded as “no clinically relevant medication-related or administration-related safety concerns were identified”. In data set [1] (clinical study, at least 6 months exposure), the “ocular corticosteroid side effects (elevated intraocular pressure, accelerated cataract progression)” value is reported as “no clinical evidence”. Further, the “inhibition of lesion growth, comparison with placebo” value in data set [2] (3 mg) and in data set [2] (30 mg) was “trend favoring” in each case. Besides, the “inhibition of total CNV surface area (percent change from Baseline), comparison with placebo” value in data set [2] (15 mg, Month 6, p=0.0001) was “statistically superior to placebo treatment”. Also, the “inhibition of total lesion surface area (percent change from Baseline), comparison with placebo” value in data set [2] (15 mg, Month 6, p=0.0005) is on record as “statistically superior to placebo treatment”. In addition, the “inhibition of total classic CNV surface area (percent change from Baseline), comparison with placebo” value in data set [2] (15 mg, Month 6, p=0.0008) is reported as “statistically superior to placebo treatment”. The “mean change at Month 6 from Baseline in log MAR visual acuity, comparison with placebo” value in data set [3] (3 mg) is “Trends also favor treatment”; in data set [3] (15 mg, p=0.0032), “statistically superior to placebo treatment”; in data set [3] (30 mg), “Trends also favor treatment”. Also, the “percentage of patients with preservation of vision (decrease of less than three log MAR lines)” value was 88% in data set [3] (15 mg, Month 6, all patients) and 92% in data set [3] (15 mg, Month 6, subgroup with predominantly classic CNV lesion, p=0.0209 vs placebo).
